# Reference: the supplement of paper PMC10307832
# How the values were obtained:
# Experiment in all cases: relative viability (nuclei count vs DMSO), 5 days (fraction); higher = more cells survive
# [1] = compound: Cc1ccc(C(=O)N(CCCN)[C@@H](c2nc3cc(Cl)ccc3c(=O)n2Cc2ccccc2)C(C)C)cc1 [Ispinesib] + N=C(N)NC(=N)NCCc1ccccc1 [Phenformin] (partner 250 µM)
# Procedure, shortened: (§1)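 The day after seeding in 1536-well plates, lung cancer cell lines were treated by pin tool with a single drug, or with a fixed anchor-drug dose together with five library-drug doses (not always all listed) in √10 steps. After 5 days, a combined fix-and-stain solution (final 0.05% Triton X-100, 1% formaldehyde, 1 ug/ml Hoechst) was added. Nuclei counted on 4× images gave relative viability as treated counts over vehicle counts, reported as the median of duplicate plates.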
# [2] = compound: C[C@]1(O)C[C@@H](c2nc(-c3ccc4ccc(-c5ccccc5)nc4c3)c3c(N)nccn32)C1 [Linsitinib] + Nc1nc2[nH]cc(CCc3ccc(C(=O)N[C@@H](CCC(=O)O)C(=O)O)cc3)c2c(=O)[nH]1 [Pemetrexed] (partner 0.2 µM)
# Procedure, shortened: as §1
# [3] = compound: C[C@]1(O)C[C@@H](c2nc(-c3ccc4ccc(-c5ccccc5)nc4c3)c3c(N)nccn32)C1 [Linsitinib] + CCNC(=O)c1noc(-c2cc(C(C)C)c(O)cc2O)c1-c1ccc(CN2CCOCC2)cc1 [Luminespib] (partner 0.01 µM)
# Procedure, shortened: as §1
# [4] = compound: Cc1ccc(C(=O)N(CCCN)[C@@H](c2nc3cc(Cl)ccc3c(=O)n2Cc2ccccc2)C(C)C)cc1 [Ispinesib] + COc1cccc2cc(-c3nc([C@H]4CC[C@H](C(=O)O)CC4)n4ncnc(N)c34)[nH]c12 [OSI-027] (partner 0.5 µM)
# Procedure, shortened: as §1
Cell Line,relative viability ([1]; first compound 0.001 µM),relative viability ([1]; first compound 0.003162 µM),relative viability ([1]; first compound 0.01 µM),relative viability ([1]; first compound 0.03162 µM),relative viability ([1]; first compound 0.1 µM),relative viability ([2]; first compound 0.01 µM),relative viability ([2]; first compound 0.03162 µM),relative viability ([2]; first compound 0.1 µM),relative viability ([2]; first compound 1 µM),relative viability ([3]; first compound 0.01 µM),relative viability ([3]; first compound 0.03162 µM),relative viability ([3]; first compound 0.1 µM),relative viability ([3]; first compound 1 µM),relative viability ([4]; first compound 0.001 µM),relative viability ([4]; first compound 0.003162 µM),relative viability ([4]; first compound 0.01 µM),relative viability ([4]; first compound 0.03162 µM),relative viability ([4]; first compound 0.1 µM),relative viability ([2]; first compound 0.3162 µM),relative viability ([3]; first compound 0.3162 µM)
NCI-H520,0.535,0.571,0.382,0.251,0.222,0.623,0.377,0.762,0.598,0.21,0.195,0.241,0.208,0.249,0.218,0.276,0.19,0.169,–,–
NCI-H522,0.613,0.627,0.694,0.603,0.349,0.831,0.839,1.01,0.839,1.55,1.18,1.18,1.2,0.746,0.759,0.715,0.555,0.414,0.652,0.961
NCI-H596,0.676,0.791,0.765,0.791,0.315,0.552,0.428,0.497,0.46,1.16,0.991,1.2,0.867,0.818,0.674,0.951,0.625,0.29,0.447,0.862
NCI-H647,0.609,0.476,0.52,0.0907,0.126,0.228,0.115,0.185,0.197,0.169,0.117,0.524,0.184,0.76,0.696,0.766,0.235,0.107,0.172,–
NCI-H650,0.451,0.445,0.476,0.312,0.18,0.878,1.05,0.923,0.739,0.774,0.919,0.877,0.669,0.571,0.624,0.585,0.381,0.23,–,0.66
NCI-H661,0.288,0.299,0.224,0.195,0.216,0.904,0.738,0.9,0.895,0.924,1.05,0.948,1.01,0.744,0.831,0.721,0.493,0.263,0.935,0.945
NCI-H838,0.649,0.605,0.827,0.194,0.163,0.252,0.209,0.256,0.212,0.411,0.211,0.278,0.235,0.425,0.359,0.539,0.436,0.197,0.214,–
NCI-H1355,0.422,0.465,0.495,0.291,0.315,1.11,0.759,0.945,0.637,0.761,0.685,0.618,0.587,0.352,0.442,0.427,0.316,0.261,0.798,0.616
NCI-H1395,0.491,0.487,0.514,0.354,0.292,0.77,–,0.979,0.835,0.672,0.585,0.616,0.732,0.642,0.681,0.67,0.384,0.316,0.673,0.63
NCI-H1437,0.326,0.335,0.371,0.251,0.189,0.317,0.247,0.307,0.275,1.1,1.12,1.22,1.19,1.1,0.881,1.16,0.938,0.263,0.288,1.1
NCI-H1563,0.663,0.685,0.696,0.63,0.54,0.791,0.883,0.718,0.752,0.599,0.607,0.51,0.525,0.841,0.768,0.834,0.843,0.536,1.09,0.486
NCI-H1650,0.512,0.467,0.407,0.182,0.305,0.301,0.279,0.379,0.308,0.196,0.167,0.235,0.172,0.573,0.718,0.623,0.174,0.271,0.334,0.202
NCI-H1651,0.365,0.413,0.374,0.299,0.121,0.345,0.489,0.56,0.596,0.754,0.903,0.801,0.682,0.837,0.696,0.848,0.684,0.137,0.608,0.621
NCI-H1666,0.524,0.6,0.541,0.475,0.343,0.823,0.625,0.83,0.741,0.95,1.08,1.12,1.02,0.749,0.889,0.864,0.712,0.476,0.722,1.07
NCI-H1734,0.455,0.379,0.414,0.239,0.156,0.413,0.324,0.404,0.408,0.204,0.206,0.198,0.178,0.609,0.585,0.659,0.459,0.177,0.417,0.154
NCI-H1755,0.553,0.646,0.638,0.463,0.195,0.388,0.401,0.653,0.398,0.41,0.244,0.419,0.469,0.665,0.791,0.859,0.57,0.321,0.234,0.327

Cell Line,relative viability ([1]; first compound 0.001 µM),relative viability ([1]; first compound 0.003162 µM),relative viability ([1]; first compound 0.01 µM),relative viability ([1]; first compound 0.03162 µM),relative viability ([1]; first compound 0.1 µM),relative viability ([2]; first compound 0.01 µM),relative viability ([2]; first compound 0.03162 µM),relative viability ([2]; first compound 0.1 µM),relative viability ([2]; first compound 1 µM),relative viability ([3]; first compound 0.01 µM),relative viability ([3]; first compound 0.03162 µM),relative viability ([3]; first compound 0.1 µM),relative viability ([3]; first compound 1 µM),relative viability ([4]; first compound 0.001 µM),relative viability ([4]; first compound 0.003162 µM),relative viability ([4]; first compound 0.01 µM),relative viability ([4]; first compound 0.03162 µM),relative viability ([4]; first compound 0.1 µM),relative viability ([2]; first compound 0.3162 µM),relative viability ([3]; first compound 0.3162 µM)
NCI-H1792,0.396,0.317,0.257,0.0806,0.154,1.05,0.695,0.891,0.321,0.427,0.52,0.371,0.328,0.889,1.09,0.743,0.862,0.356,0.51,0.297
NCI-H1793,0.375,0.357,0.448,0.278,0.133,0.834,0.819,0.842,0.63,0.166,0.205,0.164,0.178,0.275,0.343,0.294,0.22,0.16,0.584,0.149
NCI-H1915,0.413,0.372,0.392,0.165,0.176,0.558,0.291,0.495,0.486,0.796,0.61,0.835,0.797,0.679,0.514,0.751,0.252,0.212,0.588,0.707
NCI-H1944,0.199,0.247,0.206,0.167,0.106,0.597,0.574,0.661,0.492,0.755,0.793,0.727,0.532,0.398,0.449,0.426,0.338,0.17,0.426,0.637
NCI-H1975,0.448,0.412,0.458,0.164,0.11,0.287,0.239,0.293,0.289,0.24,0.263,0.281,0.127,0.781,0.819,0.991,0.258,0.127,0.287,0.302
NCI-H1993,0.537,0.483,0.543,0.518,0.436,0.59,0.621,0.565,0.404,0.751,0.852,0.835,0.498,0.518,0.601,0.565,0.514,0.442,0.449,0.794
NCI-H2009,0.519,0.512,0.451,0.312,0.186,1.15,0.944,1.09,0.942,1.01,1.01,1.06,1.06,0.702,0.695,0.618,0.212,0.211,0.946,–
NCI-H2023,0.484,0.479,0.384,0.187,0.154,0.257,0.134,0.238,0.176,0.599,0.627,0.879,0.501,0.467,0.421,0.404,0.163,0.143,0.0952,0.646
NCI-H2085,0.751,0.692,0.75,0.474,0.278,0.887,0.887,0.934,0.905,0.36,0.425,0.379,0.407,0.815,0.715,0.824,0.541,0.264,0.928,0.402
NCI-H2087,0.492,0.473,0.441,0.32,0.134,0.559,0.591,0.571,0.646,0.167,0.169,0.132,0.142,0.551,0.643,0.535,0.206,0.102,0.555,0.15
NCI-H2126,0.516,0.531,0.533,0.433,0.263,0.707,0.67,0.779,0.598,0.883,0.841,0.912,0.522,0.757,0.894,0.674,0.664,0.63,0.511,0.838
NCI-H2170,0.429,0.462,0.401,0.281,0.178,0.255,0.241,0.251,0.276,0.704,0.761,0.515,0.687,0.743,0.644,0.75,0.354,0.191,–,0.557
NCI-H2228,0.283,0.312,0.321,0.126,0.145,0.398,0.297,0.357,0.331,0.138,0.179,0.214,0.139,0.609,0.553,0.636,0.222,0.209,0.311,0.145
NCI-H2342,0.671,0.634,0.685,0.523,0.378,0.731,0.746,0.732,0.704,0.662,0.754,0.702,0.536,0.631,0.741,0.593,0.48,0.456,0.82,0.714
NCI-H2347,0.404,0.547,0.414,0.553,0.386,0.418,0.445,0.409,0.416,0.454,0.284,0.362,0.389,0.317,0.421,0.456,0.368,0.437,0.399,–
NCI-H2405,0.41,0.408,0.705,0.361,0.289,1.08,1.09,1.06,0.762,0.762,0.724,0.653,0.475,0.655,0.657,0.755,0.635,0.389,0.787,0.703
